Data as given in US12492188B2, “1H-benzo[D]imidazole derivatives as TLR9 inhibitors for the treatment of fibrosis” (BRISTOL-MYERS SQUIBB COMPANY, priority 2020, dated 2025).
Where two headings read alike, the source gives them in different places.

Tests used:
Type in all cases: cell-based
human TLR9 = biological target: T1, human TLR9 (Homo sapiens, UniProt Q9NR96); assay: TLR9 inhibition reporter assay (HEK-Blue cells, secreted embryonic alkaline phosphatase reporter)
T1 construct: host or cells: HEK-Blue cells (HEK293-derived reporter line)
T1 sequence (Q9NR96 26-1032): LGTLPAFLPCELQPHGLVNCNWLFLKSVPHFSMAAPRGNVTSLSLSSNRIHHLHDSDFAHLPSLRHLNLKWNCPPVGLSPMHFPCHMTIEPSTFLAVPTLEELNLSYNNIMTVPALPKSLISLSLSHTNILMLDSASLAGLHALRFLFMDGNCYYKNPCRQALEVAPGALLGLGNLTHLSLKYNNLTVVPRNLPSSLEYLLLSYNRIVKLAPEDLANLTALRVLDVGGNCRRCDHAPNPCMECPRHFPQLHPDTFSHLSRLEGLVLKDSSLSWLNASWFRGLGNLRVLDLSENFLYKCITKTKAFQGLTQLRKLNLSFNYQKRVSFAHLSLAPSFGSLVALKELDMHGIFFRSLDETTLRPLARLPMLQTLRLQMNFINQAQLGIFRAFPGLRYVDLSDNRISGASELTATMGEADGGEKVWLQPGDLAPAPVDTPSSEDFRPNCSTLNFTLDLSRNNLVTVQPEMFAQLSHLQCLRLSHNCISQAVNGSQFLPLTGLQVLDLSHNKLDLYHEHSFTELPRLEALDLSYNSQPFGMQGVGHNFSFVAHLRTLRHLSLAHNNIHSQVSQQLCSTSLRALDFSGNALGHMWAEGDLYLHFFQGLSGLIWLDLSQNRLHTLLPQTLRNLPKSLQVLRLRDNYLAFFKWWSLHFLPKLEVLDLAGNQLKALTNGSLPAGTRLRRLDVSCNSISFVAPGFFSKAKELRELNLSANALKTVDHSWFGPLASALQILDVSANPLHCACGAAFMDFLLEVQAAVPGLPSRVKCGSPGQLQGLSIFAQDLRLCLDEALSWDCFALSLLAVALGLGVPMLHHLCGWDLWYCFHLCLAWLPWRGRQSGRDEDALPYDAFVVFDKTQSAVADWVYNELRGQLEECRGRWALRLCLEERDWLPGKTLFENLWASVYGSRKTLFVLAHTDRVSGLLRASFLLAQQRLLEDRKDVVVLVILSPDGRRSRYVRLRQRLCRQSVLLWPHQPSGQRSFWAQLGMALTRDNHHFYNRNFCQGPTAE
Method in brief: (§1)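 Read-out is SEAP colour from HEK-Blue Detection medium after 22 h at 37 °C, converted to percent inhibition between agonist-plus-DMSO and reference-inhibitor wells. Receptor-overexpressing HEK-Blue cells received compound over 0.05 nM–50 μM for 30 min before agonist: gardiquimod 7.5 μM for TLR7, R848 15.9 μM for TLR8, ODN2006 5 nM for TLR9.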

human TLR8 = biological target: T2, human TLR8 (Homo sapiens, UniProt Q9NR97); assay: TLR8 inhibition reporter assay (HEK-Blue cells, secreted embryonic alkaline phosphatase reporter); conditions: HEK-Blue cells overexpressing human TLR8, stimulated with R848 15.9 μM; read-out: TLR 8 IC50
T2 construct: host or cells: HEK-Blue cells (HEK293-derived reporter line)
T2 sequence (Q9NR97 27-1041): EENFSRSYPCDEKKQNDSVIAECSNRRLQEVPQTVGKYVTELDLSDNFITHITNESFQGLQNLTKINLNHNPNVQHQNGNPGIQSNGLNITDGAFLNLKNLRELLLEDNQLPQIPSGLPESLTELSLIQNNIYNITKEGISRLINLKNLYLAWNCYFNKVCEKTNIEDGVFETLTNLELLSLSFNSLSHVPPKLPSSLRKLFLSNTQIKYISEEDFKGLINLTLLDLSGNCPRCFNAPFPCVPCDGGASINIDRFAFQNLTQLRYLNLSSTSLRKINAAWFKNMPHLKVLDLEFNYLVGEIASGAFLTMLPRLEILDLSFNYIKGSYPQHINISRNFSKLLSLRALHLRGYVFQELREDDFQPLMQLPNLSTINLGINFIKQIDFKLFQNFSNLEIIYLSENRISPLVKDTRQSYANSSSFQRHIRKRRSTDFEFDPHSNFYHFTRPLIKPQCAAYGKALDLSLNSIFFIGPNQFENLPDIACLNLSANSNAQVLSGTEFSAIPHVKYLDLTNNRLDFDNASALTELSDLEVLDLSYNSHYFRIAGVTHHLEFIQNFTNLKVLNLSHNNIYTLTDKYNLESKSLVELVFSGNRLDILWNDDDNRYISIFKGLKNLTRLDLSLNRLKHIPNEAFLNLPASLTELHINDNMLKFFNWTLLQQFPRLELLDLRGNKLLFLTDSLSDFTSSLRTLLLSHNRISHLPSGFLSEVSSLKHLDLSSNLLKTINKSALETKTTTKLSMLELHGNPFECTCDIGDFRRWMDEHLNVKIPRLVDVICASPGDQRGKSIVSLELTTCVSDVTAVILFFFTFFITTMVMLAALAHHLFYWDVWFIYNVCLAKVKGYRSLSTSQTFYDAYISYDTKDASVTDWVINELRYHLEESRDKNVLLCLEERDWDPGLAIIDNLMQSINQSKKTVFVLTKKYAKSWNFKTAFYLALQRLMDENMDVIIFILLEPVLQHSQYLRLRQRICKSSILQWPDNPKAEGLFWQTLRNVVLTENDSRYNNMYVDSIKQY
Method in brief: as §1

human TLR7 = biological target: T3, human TLR7 (Homo sapiens, UniProt Q9NYK1); assay: TLR7 inhibition reporter assay (HEK-Blue cells, secreted embryonic alkaline phosphatase reporter); conditions: HEK-Blue cells overexpressing human TLR7, stimulated with gardiquimod 7.5 μM; read-out: TLR 7 IC50
T3 construct: host or cells: HEK-Blue cells (HEK293-derived reporter line)
T3 sequence (Q9NYK1 27-1049): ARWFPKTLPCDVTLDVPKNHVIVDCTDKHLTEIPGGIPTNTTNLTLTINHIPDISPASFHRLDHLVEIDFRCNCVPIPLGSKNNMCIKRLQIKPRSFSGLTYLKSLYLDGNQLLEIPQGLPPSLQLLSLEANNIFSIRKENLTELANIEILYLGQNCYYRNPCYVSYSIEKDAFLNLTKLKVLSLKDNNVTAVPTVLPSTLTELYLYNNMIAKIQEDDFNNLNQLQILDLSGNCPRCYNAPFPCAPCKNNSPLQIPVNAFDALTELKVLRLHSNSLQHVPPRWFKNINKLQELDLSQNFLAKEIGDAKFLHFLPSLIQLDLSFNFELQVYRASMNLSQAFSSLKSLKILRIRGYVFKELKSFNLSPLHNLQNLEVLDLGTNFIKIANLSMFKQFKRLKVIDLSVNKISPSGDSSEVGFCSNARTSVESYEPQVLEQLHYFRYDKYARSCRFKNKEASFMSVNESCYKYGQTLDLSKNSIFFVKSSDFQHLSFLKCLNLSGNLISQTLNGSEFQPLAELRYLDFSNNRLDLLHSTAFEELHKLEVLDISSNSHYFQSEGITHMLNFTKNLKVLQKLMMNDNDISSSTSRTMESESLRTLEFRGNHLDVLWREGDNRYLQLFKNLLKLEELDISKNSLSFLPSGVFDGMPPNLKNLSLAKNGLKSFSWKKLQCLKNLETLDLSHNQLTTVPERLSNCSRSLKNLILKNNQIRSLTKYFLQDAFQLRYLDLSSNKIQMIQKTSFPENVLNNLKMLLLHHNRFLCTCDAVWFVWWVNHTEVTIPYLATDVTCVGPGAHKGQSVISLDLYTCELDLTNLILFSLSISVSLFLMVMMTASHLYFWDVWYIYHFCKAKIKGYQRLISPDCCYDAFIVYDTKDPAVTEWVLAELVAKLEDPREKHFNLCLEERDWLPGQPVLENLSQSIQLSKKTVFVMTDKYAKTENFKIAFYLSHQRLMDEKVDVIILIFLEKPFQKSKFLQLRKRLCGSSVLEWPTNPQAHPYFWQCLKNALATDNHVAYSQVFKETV
Method in brief: as §1

[1] = HEK-Blue cells overexpressing human TLR9, stimulated with ODN2006 5 nM, 22 hour incubation, reporter readout
[2] = HEK-Blue cells overexpressing human TLR9, stimulated with ODN2006 5 nM, read-out: TLR 9 IC50
[3] = HEK-Blue human TLR9 reporter cells

| IC50 (human TLR9; [1]) | IC50 (human TLR9; [2]) | IC50 (human TLR8) | IC50 (human TLR7) | IC50 (human TLR9; [3]) | IC50 (human TLR9) | SMILES |
| --- | --- | --- | --- | --- | --- | --- |
| 30 nM |  | > 50000 nM | 9800 nM |  |  | CC(C)N1CCC(N2CCC(c3ccc4nc(-c5ccc(S(C)(=O)=O)cc5)n(C)c4c3F)CC2)CC1 [Example 102, 7-fluoro-6-(1′-isopropyl-[1,4′-bipiperidin]-4-yl)-1-methyl-2-(4-(methylsulfonyl)phenyl)-1H-benzo[d]imidazole] |
|  | 1060 nM | > 50000 nM | > 50000 nM |  | 1100 nM | Cn1c(-c2ccc(S(C)(=O)=O)cc2)nc2cc(C3CCN(C4CCN(C5CCOCC5)CC4)CC3)c(F)cc21 [Example 245, 6-fluoro-1-methyl-2-(4-(methylsulfonyl)phenyl)-5-(1′-(tetrahydro-2H-pyran-4-yl)-[1,4′-bipiperidin]-4-yl)-1H-benzo[d]imidazole] |
|  | 171 nM | > 50000 nM | 14100 nM |  | 170 nM | Cn1c(-c2ccc(S(C)(=O)=O)cc2)nc2ccc(C3CCN(C4CCN(C5CCC5)CC4)CC3)c(F)c21 [Example 262, 6-(1′-cyclobutyl-[1,4′-bipiperidin]-4-yl)-7-fluoro-1-methyl-2-(4-(methylsulfonyl)phenyl)-1H-benzo[d]imidazole] |
|  | 90 nM | > 50000 nM | 8600 nM | 90 nM |  | Cc1cc(C2CCN(C3CCCN(C4COC4)CC3)CC2)cc2c1nc(-c1ccc(S(C)(=O)=O)cc1)n2C (stereo not drawn) [Example 305, 1,4-dimethyl-2-(4-(methylsulfonyl)phenyl)-6-(1-(1-(oxetan-3-yl)azepan-4-yl)piperidin-4-yl)-1H-benzo[d]imidazole] |

Further lines, the compound ahead of its results:

| SMILES | IC50 (human TLR9; [1]) | IC50 (human TLR9; [2]) | IC50 (human TLR8) | IC50 (human TLR7) | IC50 (human TLR9; [3]) | IC50 (human TLR9) |
| --- | --- | --- | --- | --- | --- | --- |
| CCN1CCCN(Cc2ccc(-c3cc(C)c4nc(-c5ccc(S(C)(=O)=O)cc5)n(C)c4c3)cc2F)CC1 [Example 389, 6-(4-((4-ethyl-1,4-diazepan-1-yl)methyl)-3-fluorophenyl)-1,4-dimethyl-2-(4-(methylsulfonyl)phenyl)-1H-benzo[d]imidazole] | 330 nM | 327 nM | 1800 nM | 300 nM |  |  |
| Cc1cc(C2CCN(C3CCN(C(C)C)CC3)CC2)cc2c1nc(-c1ccc(S(C)(=O)=O)cc1)n2C [Example 22, 6-(1′-isopropyl-[1,4′-bipiperidin]-4-yl)-1,4-dimethyl-2-(4-(methylsulfonyl)phenyl)-1H-benzo[d]imidazole] | 7.6 nM |  | > 50000 nM | 24000 nM |  |  |
| Cc1cc(C2CCN(C3CC4CCC(C3)N4C(C)C)CC2)cc2c1nc(-c1ccc(S(C)(=O)=O)cc1)n2C (single isomer, unassigned) [Example 85, 6-(1-(8-isopropyl-8-azabicyclo[3.2.1]octan-3-yl)piperidin-4-yl)-1,4-dimethyl-2-(4-(methylsulfonyl)phenyl)-1H-benzo[d]imidazole] | 110 nM | 106 nM | > 25000 nM | 5700 nM |  |  |
| COc1ccc(-c2nc3c(C)cc(C4CCN(C5CCN(C6CC6)CC5)CC4)cc3[nH]2)cc1OC [Example 44, 6-(1′-cyclopropyl-[1,4′-bipiperidin]-4-yl)-2-(3,4-dimethoxyphenyl)-4-methyl-1H-benzo[d]imidazole] | 52 nM | 52 nM | 5500 nM | 9100 nM |  |  |
| Cc1cc(-c2ccc(CN3CCC(N4CCC4)CC3)cc2)cc2c1nc(-c1ccc(S(C)(=O)=O)cc1)n2C [Example 402, 6-(4-((4-(azetidin-1-yl)piperidin-1-yl)methyl)phenyl)-1,4-dimethyl-2-(4-(methylsulfonyl)phenyl)-1H-benzo[d]imidazole] | 3.9 nM | 3.9 nM | 5800 nM | 600 nM |  |  |
| COCCN1CCCC(N2CCC(c3cc(C)c4nc(-c5ccc(S(C)(=O)=O)cc5)n(C)c4c3)CC2)CC1 (single isomer, unassigned) [Example 308, 6-(1-(1-(2-methoxyethyl)azepan-4-yl)piperidin-4-yl)-1,4-dimethyl-2-(4-(methylsulfonyl)phenyl)-1H-benzo[d]imidazole] |  | 6.7 nM | > 50000 nM | 2600 nM | 6.7 nM |  |
| CC(C)N1C2CCC1CC(N1CCC(c3cc4c(cc3F)nc(-c3ccc(S(C)(=O)=O)cc3)n4C)CC1)C2 (single isomer, unassigned) [Example 97, 5-fluoro-6-(1-(8-isopropyl-8-azabicyclo[3.2.1]octan-3-yl)piperidin-4-yl)-1-methyl-2-(4-(methylsulfonyl)phenyl)-1H-benzo[d]imidazole] | 79 nM |  | > 50000 nM | 47000 nM |  |  |
| COc1ccc(-c2nc3c(C)cc(C4CCN(C5CC6(C5)CN(C(C)C)C6)CC4)cc3n2C)cc1OC [Example 16, 2-(3,4-dimethoxyphenyl)-6-(1-(2-isopropyl-2-azaspiro[3.3]heptan-6-yl)piperidin-4-yl)-1,4-dimethyl-1H-benzo[d]imidazole tris(2,2,2-trifluoroacetate)] | 100 nM | 10.4 nM | > 50000 nM | 10000 nM |  |  |
